Series [1] is described as follows: Photophysical characterization (absorption, fluorescence, phosphorescence, lifetime). It counts as physicochemical. The procedure:
Section S6. Photophysical Characterizations
S6.1 Absorption, fluorescence, and phosphorescence spectra
Fluorescein and its derivatives were dissolved in DMSO to obtain 1 mM stock solutions.
The stock solutions were diluted with deionized water to 10 μM.
Supplementary Figure 20. The absorption (black), fluorescence (blue), and phosphorescence (red, slit 25 nm) spectra of FL.
Supplementary Figure 21. The absorption (black), fluorescence (blue), and phosphorescence (red, slit 25 nm) spectra of DCF.
S6.2 Fluorescence lifetime
Fluorescence decay samples was recorded with Fluorolog-3 (Horiba). The solution of samples were prepared to be 5 μM in 0.5% (v/v) DMSO, and diluted with 0.1M NaOH.
S6.5 Photophysical properties of the halogenated-fluorescein derivatives
Supplementary Table 4. Photophysical Properties of Halogenated-fluorescein derivatives. […]
a Measured in 2% DMSO; b Measured in 2% DMSO citric acid -disodium hydrogen phosphate buffer; c Measured in a mixed solvent of D 2O and CH3CN (VD2O:
VCH3CN = 1: 15); d The solution of samples were prepared to be 5 μM in 0.5% (v/v) DMSO, and diluted with 0.1 M NaOH.

Series [2] deals with L. plantarum. In words: Photodynamic inhibition of L. plantarum (coating plate method). It counts as cell-based, Lactobacillus plantarum.
The test system of series [3] is A. acidoterrestris. The series is described as follows: IC50 of photodynamic inactivation, A. acidoterrestris. As to conditions: Alicyclobacillus acidoterrestris, 10 min; pH 2.5; LED 520 nm, 35 mW/cm^2, 10 min. It counts as cell-based.
The format of series [4] is physicochemical. As to conditions: buffer, 5 min, pH 3. The procedure:
Next, the influence of the added TIF to jucies after photodynamic sterilization was further investigated from the following two aspects. First, like many other dyes, TIF experienced photo-bleaching upon photo irradiation. As shown in Supplementary Fig. 69, in the presence of green LED irradiation (520 nm, 50 mW/cm^2), the absorbance of TIF decreased rapidly in 5 min (with ~22% remaining). In other words, most of the added TIF in juices is expected to lose the ability of ROS generation after the first photodynamic sterilization process. Second, the ingredients inside the juices before and after TIF-involved photodynamic sterilization were evaluated. Here, the investigations were concentrated on antioxidants due to the high activity of ROS[42]. Three representative antioxidants, namely, ascorbic acid (vitamin C), phenolic compounds, and flavonoid, were chosen. […] Besides, the color, flavor, and texture of the juices were roughly evaluated through visual observation and smelling (method supplied in the Chinese National Standard GB/T 31121-2014), no appreciable changes were observed before and after TIF-based photodynamic sterilization. […]
(1) The photo-bleaching of TIF. […] As can be seen from Figure R3 below, in the presence of green LED irradiation (520 nm, 50 mW/cm2), the absorbance of TIF decreased rapidly in 5 min (with ~22% remaining). […]

Series [5] has as its system S. aureus. The series is described as follows: IC50 of photodynamic inactivation, S. aureus. As to conditions: Staphylococcus aureus, 10 min, pH 2.5, read-out: IC50 (S. aureus).
Method: (§1) For quantitative comparison, the half-maximal inhibitory concentrations (IC50) of TIF for these bacterial were measured (Supplementary Table 6, and Supplementary Figs. 51–58).
(§2) S. aureus and MRSA, and C. albicans were provided by West China Hospital of Stomatology, Sichuan University. A. acidoterrestris, S. enterica, H. pylori, L. plantarum, and E. coli were provided by College of Life Science, Sichuan University. The bacteria were cultured overnight in a constant temperature oscillator (37 °C, 170 r/min, the specific culture conditions were listed in Supplementary Table 6). Suspensions of bacteria (100 μL, diluted 1000-folds, PBS) were added with different concentration PSs (final volume of 1 mL), and irradiated with LED (λ = 520 nm, 35 mW/cm^2) for 10 min. Then, the treated bacteria liquid (100 μL) were added into the culture medium and cultured in a 24-well plate. The OD600 of bacteria was measured to obtain the bacteria CFUs, and the survival rate were calculated as C/C0 × 100%, where C is the CFU of sample which treated with PSs and light, and C0 is the blank without any treatment. All photodynamic sterilizations were carried out in at least three replicates.
Series [6] deals with H. pylori. The series is described as follows: IC50 of photodynamic inactivation, H. pylori. As to conditions: Helicobacter pylori, 10 min, pH 2.5, read-out: IC50 (H. pylori).
Method: as §1
Bacterial strains are listed in Supplementary Table 6. S. aureus and MRSA, and C. albicans were provided by West China Hospital of Stomatology, Sichuan University. A. acidoterrestris, S. enterica, H. pylori, L. plantarum, and E. coli were provided by College of Life Science, Sichuan University. The bacteria were cultured overnight in a constant temperature oscillator (37 °C, 170 r/min, the specific culture conditions were listed in Supplementary Table 6). Suspensions of bacteria (100 μL, diluted 1000-folds, PBS) were added with different concentration PSs (final volume of 1 mL), and irradiated with LED (λ = 520 nm, 35 mW/cm^2) for 10 min. Then, the treated bacteria liquid (100 μL) were added into the culture medium and cultured in a 24-well plate. The OD600 of bacteria was measured to obtain the bacteria CFUs, and the survival rate were calculated as C/C0 × 100%, where C is the CFU of sample which treated with PSs and light, and C0 is the blank without any treatment. All photodynamic sterilizations were carried out in at least three replicates.
Irradiation: 520 nm green LED (6 mW/cm2), 10 min. Error bars = Standard Deviation (n=3).
Irradiation: 520 nm green LED (6 mW/cm2), 10 min.
Series [7] relates to L. plantarum. In words: IC50 of photodynamic inactivation, L. plantarum. As to conditions: Lactiplantibacillus plantarum, 10 min, pH 2.5, read-out: IC50 (L. plantarum).
Method: as §1, §2

pIC50: −log10 of the molar value.

Take `O=C(O)c1ccccc1-c1c2cc(I)c(=O)c(I)c-2oc2c(I)c(O)c(I)cc12` [TIF, 2′,4′,5′,7′-tetraiodofluorescein]: in series [1], the kdec was determined as 1e+11 s⁻¹, the knr is 9.97e+10 s⁻¹, the krad was 3e+08 s⁻¹ and the maximum absorption came to 526 nm. Further, the ΦFL in series [1] (5 μM in 0.5% (v/v) DMSO, diluted with 0.1 M NaOH) was found to be 0.003. In series [1] (2% DMSO), this compound returned a λAbs of 527 nm, a λPh of 701 nm and a λem of 551 nm. Besides, the τfl in series [1] (fluorescence lifetime, 5 μM in 0.5% DMSO, 0.1 M NaOH) is recorded as 0.01 ns. Besides, the “antimicrobial activity at different pH” value in series [2] (0.5 μM, light, pH range 2.5–7.0) is “considerable antimicrobial activity”. Besides, the “dark toxicity (bacteria growth)” value in series [2] (no light, concentration up to 50 μM) is listed as “no significant inhibition of bacteria growth”. Moreover, in series [2] (pH 2.5, 10 μM, irradiation 1 h), the “live/dead bacterial staining (SYTO 9/propidium iodide)” value is recorded as “bright red fluorescence”; the “membrane integrity (SEM, TEM)” value is “obvious deformation and distortion parts”. Besides, the pIC50 (in general, the negative decadic logarithm of the IC50, by convention in mol/L) in series [3] is 6.24. The “absorbance remaining after photo-bleaching” value in series [4] is listed as ~ 22%. Besides, in series [5], the pIC50 is 6.43. Moreover, the negative-log IC50 (pIC50) in series [6] is 6.74. For the same compound, the pIC50 in series [7] was 8.00.
